Where “and” joins values, the source holds several entries; their conditions need not be identical. Equal values may be shown once.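 Tested at 5 concentrations; 48 h exposure; 96-well plates; endpoints linearly interpolated, else capped at highest concentration. GI50 marks 50% less growth. TGI marks complete inhibition of growth.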
Columns and labels:
Assay in all cases: NCI-60 cell line screen, 48 h
[1] = system: HCT-15 colon
[2] = system: LOX IMVI melanoma
[3] = system: SK-MEL-28 melanoma
[4] = system: SK-OV-3 ovarian
[5] = system: NCI-H522 lung
[6] = system: KM12 colon
[7] = system: CAKI-1 renal
[8] = system: MCF7 breast
[9] = system: NCI/ADR-RES ovarian
[10] = system: BT-549 breast

SMILES | TGI [1] | TGI [2] | TGI [3] | TGI [4] | TGI [5] | TGI [6] | TGI [7] | TGI [8] | TGI [9] | GI50 [5] | GI50 [6] | GI50 [1] | GI50 [2] | GI50 [10] | TGI [10] | GI50 [3] | GI50 [9] | GI50 [4] | GI50 [7] | GI50 [8]
COc1cccc(-c2cc(=O)c3cc4c(cc3[nH]2)OCO4)c1 | 8.25 µM | > 100 µM | > 100 µM | 1.15 µM | – | – | – | – | – | – | – | – | – | – | – | – | – | – | – | –
COc1cc(C(=O)N[C@H]2CCc3cc(OC)c(OC)c(OC)c3-c3ccc(SC)c(=O)cc32)cc(OC)c1OC | 25 µM | 25 µM and 19.2 µM | > 100 µM | 0.0203 µM | 0.00974 µM | 16.4 µM | – | – | – | – | – | – | – | – | – | – | – | – | – | –
CCOc1cccc2c1N[S@@](=O)S2 | > 100 µM | > 100 µM | > 100 µM | > 100 µM | > 100 µM | > 100 µM | > 100 µM | – | – | – | – | – | – | – | – | – | – | – | – | –
CN(C)N1C(=O)SCC(c2ccccc2)(c2ccccc2)C1=O | > 100 µM | > 100 µM | > 100 µM | > 100 µM | > 100 µM | > 100 µM | > 100 µM | > 100 µM | > 100 µM | – | – | – | – | – | – | – | – | – | – | –
C=C1C(=O)O[C@H]2[C@H]1CC/C(COC(=O)NCc1ccc(Cn3c(=O)sn(CCCCC)c3=O)cc1)=C\CC[C@@]1(C)O[C@@H]21 | 3.23 µM | 2.96 µM | 3.47 µM | 21.1 µM | 3.1 µM | 4.94 µM | 12.9 µM | – | 46.5 µM | 1.59 µM | 2.23 µM | 1.66 µM | 1.59 µM | 1.91 µM | 4.62 µM | 1.85 µM | 14.4 µM | 8.77 µM | 2.84 µM | –
COC(=O)C(C(=O)C(=O)Nc1ccc(C)cc1C)c1csc(-n2nc(-c3ccccc3)cc2-c2ccccc2)n1 (stereo unspecified) | > 100 µM | > 100 µM | – | > 100 µM | > 100 µM | > 100 µM | > 100 µM | – | – | – | – | – | – | – | – | – | – | – | – | –
O=c1c2c(-c3ccccc3)c3ccccc3nc2cnn1-c1ccccc1 | > 100 µM | > 100 µM | > 100 µM | > 100 µM | > 100 µM | > 100 µM | > 100 µM | – | – | – | – | – | – | – | – | – | – | – | – | –
CC(C)(C)NCC(O)COc1c(Br)c(Br)c(Br)c2c1OC(C)(C)C2 (stereo unspecified) | 3.4 µM | 3.1 µM | 3.29 µM | 3.3 µM | 3.81 µM | 3.4 µM | 3.22 µM | 3.24 µM | – | 1.99 µM | 1.82 µM | 1.89 µM | 1.68 µM | 1.69 µM | 3.11 µM | 1.81 µM | – | 1.83 µM | 1.71 µM | 1.76 µM
C=C1C(=O)C23[C@H](O)C1CC[C@H]2[C@]12COC3(O)[C@@H](O)[C@@H]1C(C)(C)CC[C@@H]2O | 15.9 µM | 33.3 µM | 12.9 µM | 31 µM | 1.9 µM | 31.4 µM | 4.89 µM | – | – | – | – | – | – | – | – | – | – | – | – | –
CCCC(=O)N[C@H]1CCc2cc(OC)c(OC)c(OC)c2-c2ccc(SC)c(=O)cc21 | > 100 µM | > 100 µM | > 100 µM | 5.75 µM | < 0.01 µM | < 0.01 µM | 14.1 µM | > 100 µM | – | – | – | – | – | – | < 0.01 µM | – | – | – | – | –
COC(=O)c1cc(=O)nc2cc3cccccc3n12 | > 100 µM | > 100 µM | > 100 µM | > 100 µM | > 100 µM | > 100 µM | – | – | – | – | – | – | – | – | – | – | – | – | – | –
CC1=Nc2ccccc2SC(c2c(Cl)cccc2Cl)C1 (stereo unspecified) | 2.57 µM | 1.04 µM | 2.69 µM | 6.44 µM | 2.23 µM | 2.15 µM | 5.3 µM | – | – | – | – | – | – | – | – | – | – | – | – | –
COc1ccc(C(=O)c2sc3nc(-c4ccccc4OC)ccc3c2N)cc1OC | > 100 µM | – | > 100 µM | > 100 µM | 8.89 µM | > 100 µM | > 100 µM | > 100 µM | > 100 µM | 2.5 µM | 9.67 µM | 6.13 µM | – | 3.14 µM | 17 µM | > 100 µM | 5.05 µM | 30.6 µM | 27.6 µM | 4.75 µM
CC1CC2(S(=O)(=O)c3ccccc3)ON1CC2S(=O)(=O)c1ccccc1 (stereo unspecified) | > 100 µM | > 100 µM | > 100 µM | > 100 µM | > 100 µM | > 100 µM | > 100 µM | – | – | – | – | – | – | – | – | – | – | – | – | –
OC1=CN=COc2ccccc21 | > 100 µM | > 100 µM | > 100 µM | > 100 µM | – | > 100 µM | – | – | – | – | – | – | – | – | – | – | – | – | – | –
COc1ccc(/C=C(\NC(=O)c2ccccc2)c2nc3ccccc3[nH]2)cc1OC | > 100 µM | > 100 µM | > 100 µM | > 100 µM | > 100 µM | > 100 µM | > 100 µM | – | – | – | – | – | – | – | – | – | – | – | – | –
CC(=O)/C=C/c1ccc(Nc2c3ccccc3nc3occ(Cl)c23)cc1 | 11.7 µM | – | > 100 µM | 65.6 µM | 16.1 µM | > 100 µM | 1.07 µM | 14.3 µM | 5.88 µM | 3.43 µM | > 100 µM | 2.09 µM | – | 4.9 µM | 22.7 µM | 15.1 µM | 2.56 µM | 8.21 µM | 0.159 µM | 1.07 µM
CCCCCCC(O)CC[C@H]1CCC[C@@H](C)N1 (stereo partly specified) | > 31.6 µM | > 100 µM | > 31.6 µM | > 100 µM | > 100 µM | < 10 µM | > 100 µM | – | – | – | – | – | – | – | – | – | – | – | – | –
O=C1CCC2(c3ccccc3)Nc3ccccc3N12 (stereo unspecified) | > 100 µM | > 100 µM | > 100 µM | – | > 100 µM | > 100 µM | > 100 µM | – | – | – | – | – | – | – | – | – | – | – | – | –
CCOC(=O)c1sc(-c2ccc(OS(=O)(=O)C[C@]34CCC(CC3=O)C4(C)C)c(C=O)c2)nc1C | 1.69 µM | 2.34 µM | 2.12 µM | 4.09 µM | 2.89 µM | 3.54 µM | 2.67 µM | 2.47 µM | – | 1.02 µM | 1.3 µM | 0.761 µM | 1.05 µM | 0.916 µM | 2.48 µM | 0.982 µM | – | 1.3 µM | 0.667 µM | 0.858 µM
COc1ccccc1-c1cc(=O)c2cc(C)c(C)c(C(=O)O)c2o1 | > 100 µM | > 100 µM | > 100 µM | > 100 µM | > 100 µM | > 100 µM | – | – | – | – | – | – | – | – | – | – | – | – | – | –
